Measurements published in PubChem BioAssay AID256 (DTP/NCI, 2004).
Several values for one entry are separate records, joined by “and”; a condition that tells them apart may be missing. Identical values can stand only once. Toxic doses and inconclusive results are not listed.

Tested on: CD2F1 mice, L1210 leukemia ip, survival T/C
Experiment: NCI In Vivo Anticancer Drug Screen. Data for tumor model L1210 Leukemia (intraperitoneal) in CD2F1 (CDF1) mice
Settings: higher = longer survival
Method in brief: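 Read-out first: treated-group measurement over vehicle-control measurement, expressed as a ratio. Animals bore a transplanted tumor line and were dosed with compound or vehicle.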

[1] = endpoint: mean survival time, dose: 100.0 mg/kg/injection, schedule: Q01DX009 (ip), vehicle: saline with Tween-80
[2] = endpoint: mean survival time, dose: 200.0 mg/kg/injection, schedule: Q01DX009 (ip), vehicle: saline with Tween-80
[3] = endpoint: mean survival time, dose: 100.0 mg/kg/injection, schedule: Q04DX003 (ip), vehicle: saline
[4] = endpoint: mean survival time, dose: 200.0 mg/kg/injection, schedule: Q04DX003 (ip), vehicle: saline

`Cc1ccc(S(=O)(=O)N/N=C/C(=O)O)cc1` was tested, and the T/C (endpoint: mean survival time, dose: 25.0 mg/kg/injection, schedule: Q01DX009 (ip), vehicle: other) was 117 % of control and 108 % of control, the T/C (endpoint: mean survival time, dose: 100.0 mg/kg/injection, schedule: Q01DX009 (ip), vehicle: other) was 123 % of control and the T/C (endpoint: mean survival time, dose: 100.0 mg/kg/injection, schedule: Q04DX003 (ip), vehicle: Klucel (hydroxypropylcellulose) (HPC)) was 150 % of control. The T/C (endpoint: mean survival time, dose: 100.0 mg/kg/injection, schedule: Q04DX003 (ip), vehicle: saline with Tween-80) was 123 % of control, the T/C (endpoint: mean survival time, dose: 200.0 mg/kg/injection, schedule: Q01DX009 (ip), vehicle: other) was 96 % of control and 102 % of control and the T/C (endpoint: mean survival time, dose: 400.0 mg/kg/injection, schedule: Q04DX003 (ip), vehicle: Klucel (hydroxypropylcellulose) (HPC)) was 186 % of control. The T/C (endpoint: mean survival time, dose: 600.0 mg/kg/injection, schedule: Q04DX003 (ip), vehicle: Klucel (hydroxypropylcellulose) (HPC)) was 114 % of control, the T/C (endpoint: mean survival time, dose: 600.0 mg/kg/injection, schedule: Q04DX003 (ip), vehicle: saline with Tween-80) was 153 % of control and the T/C (endpoint: median survival time, dose: 1.0 mg/kg/injection, schedule: Q03HX024 (ip), vehicle: saline) was 111 % of control. The T/C (endpoint: median survival time, dose: 2.0 mg/kg/injection, schedule: Q03HX016 (ip), vehicle: saline) was 124 % of control, the T/C (endpoint: median survival time, dose: 2.0 mg/kg/injection, schedule: Q03HX024 (ip), vehicle: saline) was 112 % of control and the T/C (endpoint: median survival time, dose: 4.0 mg/kg/injection, schedule: Q03HX008 (ip), vehicle: saline) was 124 % of control. For the same compound, the T/C (endpoint: median survival time, dose: 4.0 mg/kg/injection, schedule: Q03HX024 (ip), vehicle: saline) was 121 % of control, the T/C (endpoint: median survival time, dose: 8.0 mg/kg/injection, schedule: Q01DX009 (sc), vehicle: saline) was 102 % of control and the T/C (endpoint: median survival time, dose: 16.0 mg/kg/injection, schedule: Q01DX009 (oral), vehicle: saline) was 101 % of control. The T/C (endpoint: median survival time, dose: 16.0 mg/kg/injection, schedule: Q01DX009 (sc), vehicle: saline) was 104 % of control, the T/C (endpoint: median survival time, dose: 32.0 mg/kg/injection, schedule: Q01DX001 (sc), vehicle: saline) was 104 % of control and the T/C (endpoint: median survival time, dose: 32.0 mg/kg/injection, schedule: Q01DX009 (ip), vehicle: saline) was 166 % of control. The T/C (endpoint: median survival time, dose: 32.0 mg/kg/injection, schedule: Q01DX009 (oral), vehicle: saline) was 98 % of control, the T/C (endpoint: median survival time, dose: 32.0 mg/kg/injection, schedule: Q01DX009 (sc), vehicle: saline) was 116 % of control and the T/C (endpoint: median survival time, dose: 32.0 mg/kg/injection, schedule: Q03HX016 (ip), vehicle: saline) was 123 % of control. The T/C (endpoint: median survival time, dose: 32.0 mg/kg/injection, schedule: Q03HX024 (ip), vehicle: saline) was 92 % of control, the T/C (endpoint: median survival time, dose: 64.0 mg/kg/injection, schedule: Q01DX001 (sc), vehicle: saline) was 105 % of control and the T/C (endpoint: median survival time, dose: 64.0 mg/kg/injection, schedule: Q01DX009 (ip), vehicle: saline) was 157 % of control. For the same compound, the T/C (endpoint: median survival time, dose: 64.0 mg/kg/injection, schedule: Q01DX009 (oral), vehicle: saline) was 102 % of control, the T/C (endpoint: median survival time, dose: 64.0 mg/kg/injection, schedule: Q01DX009 (sc), vehicle: saline) was 116 % of control and the T/C (endpoint: median survival time, dose: 64.0 mg/kg/injection, schedule: Q04DX003 (ip), vehicle: saline) was 164 % of control. The T/C (endpoint: median survival time, dose: 128.0 mg/kg/injection, schedule: Q01DX001 (oral), vehicle: saline) was 102 % of control, the T/C (endpoint: median survival time, dose: 128.0 mg/kg/injection, schedule: Q01DX001 (sc), vehicle: saline) was 104 % of control and the T/C (endpoint: median survival time, dose: 128.0 mg/kg/injection, schedule: Q01DX009 (oral), vehicle: saline) was 102 % of control. The T/C (endpoint: median survival time, dose: 128.0 mg/kg/injection, schedule: Q01DX009 (sc), vehicle: saline) was 116 % of control, the T/C (endpoint: median survival time, dose: 128.0 mg/kg/injection, schedule: Q04DX003 (ip), vehicle: saline) was 168 % of control and the T/C (endpoint: median survival time, dose: 128.0 mg/kg/injection, schedule: Q08DX002 (ip), vehicle: saline) was 155 % of control. The T/C (endpoint: median survival time, dose: 256.0 mg/kg/injection, schedule: Q01DX001 (oral), vehicle: saline) was 98 % of control, the T/C (endpoint: median survival time, dose: 256.0 mg/kg/injection, schedule: Q01DX001 (sc), vehicle: saline) was 107 % of control and the T/C (endpoint: median survival time, dose: 256.0 mg/kg/injection, schedule: Q01DX009 (oral), vehicle: saline) was 105 % of control. For the same compound, the T/C (endpoint: median survival time, dose: 512.0 mg/kg/injection, schedule: Q01DX001 (oral), vehicle: saline) was 110 % of control, the T/C (endpoint: median survival time, dose: 512.0 mg/kg/injection, schedule: Q01DX001 (sc), vehicle: saline) was 112 % of control and the T/C (endpoint: median survival time, dose: 1024.0 mg/kg/injection, schedule: Q01DX001 (oral), vehicle: saline) was 123 % of control.
`CC1(C)CC(Cl)(C(O)c2ccc([N+](=O)[O-])cc2)C(=O)c2ccccc21` (configuration not stated) was tested, and the T/C (endpoint: mean survival time, dose: 100.0 mg/kg/injection, schedule: Q04DX003 (ip), vehicle: acetone) was 95 % of control, the T/C (endpoint: mean survival time, dose: 200.0 mg/kg/injection, schedule: Q04DX003 (ip), vehicle: acetone) was 98 % of control and the T/C (endpoint: mean survival time, dose: 400.0 mg/kg/injection, schedule: Q04DX003 (ip), vehicle: acetone) was 88 % of control.
In the case of `O=C(O)C(C(=O)O)C1C=CCC1` (configuration not stated), the T/C (endpoint: mean survival time, dose: 50.0 mg/kg/injection, schedule: Q04DX002 (ip), vehicle: saline with Tween-80) is reported as 98 % of control, the T/C (endpoint: mean survival time, dose: 100.0 mg/kg/injection, schedule: Q04DX002 (ip), vehicle: saline with Tween-80) is reported as 102 % of control and the T/C (endpoint: mean survival time, dose: 200.0 mg/kg/injection, schedule: Q04DX002 (ip), vehicle: saline with Tween-80) is reported as 87 % of control. The T/C (endpoint: mean survival time, dose: 400.0 mg/kg/injection, schedule: Q04DX002 (ip), vehicle: saline with Tween-80) was 87 % of control.
For `CCCCN(Cc1ccccc1)CC(O)C[NH-].CS(C)=O.[Cl-].[Cl-].[Pt+4]` (configuration not stated), the T/C (endpoint: median survival time, dose: 10.0 mg/kg/injection, schedule: Q04DX003 (ip), vehicle: saline) was 100 % of control, the T/C (endpoint: median survival time, dose: 20.0 mg/kg/injection, schedule: Q04DX003 (ip), vehicle: saline) was 110 % of control and the T/C (endpoint: median survival time, dose: 40.0 mg/kg/injection, schedule: Q04DX003 (ip), vehicle: saline) was 108 % of control. For the same compound, the T/C (endpoint: median survival time, dose: 50.0 mg/kg/injection, schedule: Q04DX003 (ip), vehicle: saline) was 103 % of control and the T/C (endpoint: median survival time, dose: 80.0 mg/kg/injection, schedule: Q04DX003 (ip), vehicle: saline) was 109 % of control.
With `COc1ccc([I+]c2ccccc2)cc1` the T/C (endpoint: mean survival time, dose: 2.5 mg/kg/injection, schedule: Q01DX009 (ip), vehicle: saline sonified) was 102 % of control, the T/C (endpoint: mean survival time, dose: 2.5 mg/kg/injection, schedule: Q04DX003 (ip), vehicle: saline with Tween-80) was 106 % of control and the T/C (endpoint: mean survival time, dose: 5.0 mg/kg/injection, schedule: Q01DX009 (ip), vehicle: saline sonified) was 106 % of control. For the same compound, the T/C (endpoint: mean survival time, dose: 5.0 mg/kg/injection, schedule: Q04DX003 (ip), vehicle: saline with Tween-80) was 98 % of control, the T/C (endpoint: mean survival time, dose: 6.25 mg/kg/injection, schedule: Q01DX009 (ip), vehicle: saline with Tween-80) was 95 % of control and the T/C (endpoint: mean survival time, dose: 6.25 mg/kg/injection, schedule: Q04DX003 (ip), vehicle: saline with Tween-80) was 93 % of control. The T/C (endpoint: mean survival time, dose: 10.0 mg/kg/injection, schedule: Q01DX009 (ip), vehicle: saline sonified) was 95 % of control, the T/C (endpoint: mean survival time, dose: 10.0 mg/kg/injection, schedule: Q04DX003 (ip), vehicle: saline with Tween-80) was 104 % of control and the T/C (endpoint: mean survival time, dose: 12.5 mg/kg/injection, schedule: Q01DX009 (ip), vehicle: saline with Tween-80) was 118 % of control. The T/C (endpoint: mean survival time, dose: 12.5 mg/kg/injection, schedule: Q04DX003 (ip), vehicle: saline with Tween-80) was 92 % of control, the T/C (endpoint: mean survival time, dose: 25.0 mg/kg/injection, schedule: Q01DX009 (ip), vehicle: saline with Tween-80) was 120 % of control and the T/C (endpoint: mean survival time, dose: 25.0 mg/kg/injection, schedule: Q04DX003 (ip), vehicle: saline with Tween-80) was 104 % of control.
In the case of `CC1(C)NC(=O)C2CC21C` (configuration not stated), the T/C (endpoint: mean survival time, dose: 25.0 mg/kg/injection, schedule: Q04DX002 (ip), vehicle: saline) is reported as 96 % of control, the T/C (endpoint: mean survival time, dose: 50.0 mg/kg/injection, schedule: Q04DX002 (ip), vehicle: saline) is reported as 112 % of control and the T/C (endpoint: mean survival time, dose: 100.0 mg/kg/injection, schedule: Q04DX002 (ip), vehicle: saline) is reported as 93 % of control.
`NC(=S)N/N=C/c1ccccc1O` was tested, and the T/C [1] was 102 % of control, the T/C [2] was 91 % of control and the T/C (endpoint: mean survival time, dose: 400.0 mg/kg/injection, schedule: Q01DX009 (ip), vehicle: saline with Tween-80) was 88 % of control.
`CC(=O)Nc1ccc2c(c1)C(N1CC3CCC(CC3)C1)c1ccccc1-2` (configuration not stated) was tested, and the T/C (endpoint: mean survival time, dose: 50.0 mg/kg/injection, schedule: Q04DX003 (ip), vehicle: saline) was 105 % of control, the T/C [3] was 103 % of control and the T/C [4] was 103 % of control.
`CC1=CC(=O)C=C/C1=N/S(=O)(=O)c1ccccc1` was tested, and the T/C (endpoint: mean survival time, dose: 25.0 mg/kg/injection, schedule: Q01DX001 (ip), vehicle: saline with Tween-80) was 93 % of control, the T/C (endpoint: mean survival time, dose: 50.0 mg/kg/injection, schedule: Q01DX001 (ip), vehicle: saline with Tween-80) was 90 % of control and the T/C (endpoint: mean survival time, dose: 100.0 mg/kg/injection, schedule: Q01DX001 (ip), vehicle: saline with Tween-80) was 97 % of control.
In the case of `COC1=C2CCCC2=[N+]2CCCCC2C1` (configuration not stated), the T/C [3] is reported as 96 % of control and the T/C [4] is reported as 96 % of control.
In the case of `CC/C(=C\C=C\N(C)C)C(=O)OC`, the T/C (endpoint: mean survival time, dose: 50.0 mg/kg/injection, schedule: Q01DX009 (ip), vehicle: saline with Tween-80) is reported as 100 % of control, the T/C [1] is reported as 100 % of control and the T/C [2] is reported as 105 % of control.
For `O=C1CN2CCC1CC2`, the T/C [3] was 102 % of control and the T/C [4] was 107 % of control.
